Assay results: US8012935B2, “Synthetic peptides and methods for treating cancer invasion and metastasis” (priority 2002, dated 2011)

Legend:
[1] = tested on: human melanoma cells A2058; assay: MATRIGEL invasion and migration by melanoma cells A2058; format: cell-based
Description: The inhibitory effects of these oligopeptides on the MATRIGEL™ invasion and migration through the MATRIGEL™ membrane by various cancer cells were evaluated using “Improved MATRIGEL™ Invasion Chamber” (Becton Dickinson, USA).
(§1) The studies were conducted using “Improved MATRIGEL™ Invasion Chambers” (Becton Dickinson, USA).
(§2) In studies with human melanoma cells, human fibroblasts-NHDF (Clonetics) were seeded on MATRIGEL™ inserts and allowed to reach confluence. This was done to closely simulate in vivo conditions surrounding cancer cells in the body. Human melanoma cells A2058 were then seeded on the insert. Conditioned media from the fibroblast culture supplemented with various levels of chosen oligopeptide were added to the chamber. The system was incubated for about 24 hours. At the end of the period the cells on the upper surface of the insert were wiped off. The cells that had invaded the MATRIGEL™ membrane and had migrated to the lower surface of the insert were stained with “quick stain” and were counted under the microscope. […] The inhibitory activity of the control was considered as “0”. The media from invasion assays were saved for zymogram studies.

[2] = tested on: human breast cancer cells MCF7; assay: MATRIGEL invasion and migration by breast cancer cells MCF7; format: cell-based; details: for inhibition of MATRIGEL invasion: MCF7
Description: as §1, §2
(§3) In studies with human breast cancer cells MCF7 the procedure was essentially similar to that used for melanoma cells, except that MRC5 (ATCC) fibroblasts were used in place of NHDF.

[3] = tested on: human breast cancer cells MDA-MB 231; assay: MATRIGEL invasion by breast cancer cells MDA-MB 231; format: cell-based; details: 150 μM
Description: as §1, §2, §3
In studies with human breast cancer cells MDA-MB 231 the fibroblast-MRC5 cells were plated in the wells. The rest of the procedure remained the same as in studies with MCF7 cells.

[4] = tested on: MMP-2 secreted by the cancer cells; assay: Zymogram studies of media from invasion assays; format: cell-based, human; details: zymogram gels
Description: as §2
The media (25-30 μl) from various wells in invasion studies were applied to NOVEX® zymogram gels (Invitrogen). The gels were developed and stained as recommended by the manufacturer. The matrix metalloproteinases (MMPs) were identified on the basis of their known molecular weights.

[5] = comparison of oligopeptides (FIG. 2), concentration not given, about 24 hours

Sequence: LPPDVQRVD (listed as Homo sapiens)
- inhibition of MATRIGEL invasion [1, 5]: about 20%

Sequence: GDVAPKTDKE (listed as Homo sapiens)
- inhibition of MATRIGEL invasion ([1]; 100 μM concentration): did not show any activity

Sequence: PRKPKWDK (listed as Homo sapiens) [synthetic oligopeptide corresponding to amino acids 85 to 92 of MMP-2]
- inhibition of MATRIGEL invasion ([1]; 50 μM (FIG. 3)): about 37%
- inhibition of MATRIGEL invasion ([1]; 100 μM concentration): 63%
- inhibition of MATRIGEL invasion ([1]; 150 μM (FIG. 3)): 73%
- inhibition of MATRIGEL invasion [1, 5]: 73%
- inhibition of MATRIGEL invasion ([2]; 150 μM (FIG. 4)): about 70%
- inhibition of MATRIGEL invasion ([2]; 200 μM (FIG. 4)): about 90%
- inhibition of the invasion of cancer cells ([2]; summary statement, cell line and concentration not stated): about 90%
- inhibition of MATRIGEL invasion [3]: about 94%
- inhibitory effect on the amount of MMP-2 secreted [4]: did not show any inhibitory effect

Sequence: TMRKPRCGNPDVAN (listed as Homo sapiens) [reference compound]
- inhibition of MATRIGEL invasion [1, 5]: about 11%
